Experimental data taken from US9770441B1, “Crystalline solid forms of 6-carboxy-2-(3,5-dichlorophenyl)-benzoxazole” (Pfizer Inc., priority 2014, dated 2017).

Tests used:
[1] = isothermal vapor sorption analysis; type: physicochemical; conditions: up to 90% relative humidity, ambient temperature
Protocol: Form 1 was analyzed via isothermal vapor sorption analysis, which is a gravimetric technique that measures how quickly and how much of a solvent is absorbed by a sample: such as a dry powder absorbing water. It does this by varying the vapor concentration surrounding the sample and measuring the change in mass which this produces.

[2] = hygroscopicity as stated in the description of the solid form; type: physicochemical; conditions: crystalline anhydrous form

O=C(O)c1ccc2nc(-c3cc(Cl)cc(Cl)c3)oc2c1 [Form 1, 6-carboxy-2-(3,5-dichlorophenyl)-benzoxazole]
reversible weight gain [1]: less than 0.25% | hygroscopicity of the solid form [2]: non-hygroscopic
